Reference: patent US20240279239A1, “COMPOUNDS AND METHODS FOR MODULATING SPLICING” (REMIX THERAPEUTICS INC., priority 2020, published 2024)
Where a name gives a salt, the structure may show the parent alone. Read-outs that look alike come from different tables or passages of the source.

Experiments:
Assay type in all cases: cell-based
HTT [1] = experiment: RT-qPCR splicing assay for HTT mRNA isoforms (canonical junction CJ and alternative junction AJ); conditions: A673 or K562 cell line, 24 hours treatment
Method: (§1) Example 44: Exemplary splicing assay for monitoring expression levels of splice variants Compounds described herein were used to modulate RNA transcript abundance in cells. The expression of a target mRNA was measured by detecting the formation of an exon-exon junction in the canonical transcript (CJ). A compound mediated exon-inclusion event was detected by observing an increase in formation of a new junction with an alternative exon (AJ). Real-time qPCR assays were used to detect these splicing switches and interrogate the potency of various compounds towards different target genes. A high-throughput real time quantitative PCR (RT-qPCR) assay was developed to measure these two isoforms of the mRNA (CJ and AJ) for an exemplary gene, HTT, together with a control housekeeping gene, GAPDH or GUSB or PPIA, used for normalization. Briefly, the A673 or K562 cell line was treated with various compounds described herein (e.g., compounds of Formula (I)). After treatment, the levels of the HTT mRNA targets were determined from each sample of cell lysate by cDNA synthesis followed by qPCR.
(§2) The A673 cell line was cultured in DMEM with 10% FBS. Cells were diluted with full growth media and plated in a 96-well plate (15,000 cells in 100 µl media per well). The plate was incubated at 37° C. with 5% CO2 for 24 hours to allow cells to adhere. An 11-point 3-fold serial dilution of the compounds was made in DMSO then diluted in media in an intermediate plate. Compounds were transferred from the intermediate plate to the cell plate with the top dose at a final concentration of 10 uM in the well. Final DMSO concentration was kept at or below 0.25%. The cell plate was returned to the incubator at 37° C. with 5% CO2 for an additional 24 hours.
(§3) The K562 cell line was cultured in IMDM with 10% FBS. For K562, cells were diluted with full growth media and plated in either a 96-well plate (50,000 cells in 50 uL media per well) or a 384-well plate (8,000-40,000 cells in 45 uL media per well). An 11-point 3-fold serial dilution of the compounds were made in DMSO then diluted in media in an intermediate plate. Compound was transferred from the intermediate plate to the cell plate with the top dose at a final concentration of 10 uM in the well. Final DMSO concentration was kept at or below 0.25%. Final volume was 100 uL for 96-well plate and 50 uL for 384-well plate. The cell plate was then placed in an incubator at 37° C. with 5% CO2 for 24 hours.
(§4) The cells were then gently washed with 50 uL-100 uL cold PBS before proceeding to addition of lysis buffer. 30 uL-50 uL of room temperature lysis buffer with DNAse I (and optionally RNAsin) was added to each well. Cells were shaken/mixed thoroughly at room temperature for 5-10 minutes for lysis to take place and then 3 uL-5 uL of room temperature stop solution was added and wells were shaken/mixed again. After 2-5 minutes, the cell lysate plate was transferred to ice for RT-qPCR reaction setup. The lysates could also be frozen at ˜80° C. for later use.
(§5) In some cases, a direct lysis buffer was used. An appropriate volume of 3× lysis buffer (10 mM Tris, 150 mM NaCl, 1.5%-2.5% Igepal and 0.1-1 U/uL RNAsin, pH 7.4) was directly added to either K562 or A673 cells in media and mixed by pipetting 3 times. The plates were then incubated at room temperature with shaking/rocking for 20-50 minutes to allow for lysis to take place. After this time, the cell lysate plate was transferred to ice to set up for the RT-qPCR reactions. The lysates could also be frozen at −80° C. for later use.
(§6) To set up 10 uL RT-qPCR reactions, cell lysates were transferred to 384-well qPCR plates containing the master mix according to the table below. The plates were sealed, gently vortexed, and spun down before the run. The volumes were adjusted accordingly in some instances where the reaction was carried in 20 uL. The table below summarizes the components of the RT-qPCR reactions: […]

Target C = experiment: RT-qPCR canonical junction panel assay, Target C; conditions: gene panel, read-out: Target C IC50 (decrease in CJ mRNA levels)
Method: as §1, §2, §3, §4, §5, §6

SMN2 = experiment: RT-qPCR canonical junction panel assay, SMN2; conditions: gene panel, read-out: SMN2 IC50 (decrease in CJ mRNA levels)
Method: as §1, §2, §3, §4, §5, §6

HTT [2] = experiment: RT-qPCR canonical junction panel assay, HTT; conditions: gene panel, read-out: HTT IC50 (decrease in CJ mRNA levels)
Method: as §1, §2, §3, §4, §5, §6

[3] = decrease in CJ mRNA levels, read-out: HTT CJ AC50
[4] = increase in AJ mRNA, read-out: HTT AJ AC50

SMILES | AC50 (HTT [1]; [3]) [nM] | AC50 (HTT [1]; [4]) [nM] | IC50 (Target C) [nM] | IC50 (SMN2) [nM] | IC50 (HTT [2]) [nM]
Cc1cn2cc(-c3nn4c(=O)cc(N5CCN(C)C6(CC6)C5)nc4s3)cc(F)c2n1 [Compound 218, 2-(8-fluoro-2-methylimidazo[1,2-α]pyridin-6-yl)-7-(4-methyl-4,7-diazaspiro[2.5]octan-7-yl)-5H-[1,3,4]thiadiazolo[3,2-α]pyrimidin-5-one] | 1000 to 10000 | 1000 to 10000 | 1000 to 10000 | 1000 to 10000 | 1000 to 10000
Cn1cc2cc(-n3cnc4nc(N5CCNCC5)sc4c3=O)ccc2n1 [Compound 225, 6-(2-methyl-2H-indazol-5-yl)-2-(piperazin-1-yl)thiazolo[4,5-d]pyrimidin-7(6H)-one] | > 10000 | > 10000 | > 10000 | > 10000 | > 10000
Cc1cn2cc(-n3cnc4nc(N5CCNCC5)sc4c3=O)cc(F)c2n1 [Compound 226, 6-(8-fluoro-2-methylimidazo[1,2-α]pyridin-6-yl)-2-(piperazin-1-yl)thiazolo[4,5-d]pyrimidin-7(6H)-one] | 100 to 1000 | 100 to 1000 | 100 to 1000 | 100 to 1000 | 100 to 1000
Cc1cn2cc(-n3cnc4nc(N(C)C5CC(C)(C)NC(C)(C)C5)sc4c3=O)cc(F)c2n1 [Compound 227, 6-(8-fluoro-2-methylimidazo[1,2-α]pyridin-6-yl)-2-(methyl(2,2,6,6-tetramethylpiperidin-4-yl)amino)thiazolo[4,5-d]pyrimidin-7(6H)-one, formate] | > 10000 | > 10000 | > 10000 | > 10000 | > 10000
Cc1cn2cc(-n3cnc4nc(N5CCN(C)CC5)sc4c3=O)cc(F)c2n1 [Compound 228, 6-(8-fluoro-2-methylimidazo[1,2-α]pyridin-6-yl)-2-(4-methylpiperazin-1-yl)thiazolo[4,5-d]pyrimidin-7(6H)-one] | 1000 to 10000 | 1000 to 10000 | 1000 to 10000 | 1000 to 10000 | 1000 to 10000
Cc1cn2cc(-n3cnc4nc(N5CCNCC5)sc4c3=O)cc(C(F)(F)F)c2n1 [Compound 229, 6-(2-methyl-8-(trifluoromethyl)imidazo[1,2-α]pyridin-6-yl)-2-(piperazin-1-yl)thiazolo[4,5-d]pyrimidin-7(6H)-one] | > 10000 | > 10000 | > 10000 | > 10000 | > 10000
Cc1cn2cc(-n3cnc4nc(N5CCN(C)CC5)sc4c3=O)cc(C(F)(F)F)c2n1 [Compound 230, 6-(2-methyl-8-(trifluoromethyl)imidazo[1,2-α]pyridin-6-yl)-2-(4-methylpiperazin-1-yl)thiazolo[4,5-d]pyrimidin-7(6H)-one] | > 10000 | > 10000 | > 10000 | > 10000 | > 10000
Cc1cn2nc(-c3nc4ncn(C5CCNCC5)c(=O)c4s3)cc(C)c2n1 [Compound 231, 2-(2,8-dimethylimidazo[1,2-b]pyridazin-6-yl)-6-(piperidin-4-yl)thiazolo[4,5-d]pyrimidin-7(6H)-one] | 100 to 1000 | 100 to 1000 | 1000 to 10000 | 1000 to 10000 | 100 to 1000
Cc1cn2cc(-c3nc4ncn(C5CCNCC5)c(=O)c4s3)cc(F)c2n1 [Compound 232, 2-(8-fluoro-2-methylimidazo[1,2-α]pyridin-6-yl)-6-(piperidin-4-yl)thiazolo[4,5-d]pyrimidin-7(6H)-one] | < 100 | < 100 | 100 to 1000 | < 100 | < 100
Cc1cc(-c2nc3ncn(C4CCNCC4)c(=O)c3s2)cc2cn(C)nc12 [Compound 233, 2-(2,7-dimethyl-2H-indazol-5-yl)-6-(piperidin-4-yl)thiazolo[4,5-d]pyrimidin-7(6H)-one] | < 100 | < 100 | 100 to 1000 | < 100 | < 100
Cc1cc(-c2nc3ncn(C4CCN(C)CC4)c(=O)c3s2)cc2cn(C)nc12 [Compound 234, 2-(2,7-dimethyl-2H-indazol-5-yl)-6-(1-methylpiperidin-4-yl)thiazolo[4,5-d]pyrimidin-7(6H)-one] | 100 to 1000 | 100 to 1000 | 1000 to 10000 | < 100 | 100 to 1000
Cc1cn2cc(-c3cc4ncn(C5CCNCC5)c(=O)c4s3)cc(F)c2n1 [Compound 235, 6-(8-fluoro-2-methylimidazo[1,2-α]pyridin-6-yl)-3-(piperidin-4-yl)thieno[3,2-d]pyrimidin-4(3H)-one] | < 100 | < 100 | 100 to 1000 | < 100 | < 100
Cc1cc(-c2cc3ncn(C4CCNCC4)c(=O)c3s2)cc2cn(C)nc12 [Compound 236, 6-(2,7-dimethyl-2H-indazol-5-yl)-3-(piperidin-4-yl)thieno[3,2-d]pyrimidin-4(3H)-one] | < 100 | 100 to 1000 | 100 to 1000 | < 100 | < 100
Cc1cc(-c2cc3ncn(C4CCN(C)CC4)c(=O)c3s2)cc2cn(C)nc12 [Compound 237, 6-(2,7-dimethyl-2H-indazol-5-yl)-3-(1-methylpiperidin-4-yl)thieno[3,2-d]pyrimidin-4(3H)-one] | 100 to 1000 | 100 to 1000 | 1000 to 10000 | < 100 | 100 to 1000
Cc1cn2nc(-c3cc4ncn(C5CCNCC5)c(=O)c4s3)cc(C)c2n1 [Compound 238, 6-(2,8-dimethylimidazo[1,2-b]pyridazin-6-yl)-3-(piperidin-4-yl)thieno[3,2-d]pyrimidin-4(3H)-one] | 100 to 1000 | 100 to 1000 | 1000 to 10000 | < 100 | 100 to 1000
Cc1cn2nc(-c3cc4ncn(C5CCN(C)CC5)c(=O)c4s3)cc(C)c2n1 [Compound 239, 6-(2,8-dimethylimidazo[1,2-b]pyridazin-6-yl)-3-(1-methylpiperidin-4-yl)thieno[3,2-d]pyrimidin-4(3H)-one] | 1000 to 10000 | 1000 to 10000 | > 10000 | < 100 | 1000 to 10000
